Test results from patent publication US20260356819A1, “OXOISOINDOLINYL-SUBSTITUTED […] DERIVATIVE AND USE THEREOF” (GLUETACS THERAPEUTICS (SHANGHAI) CO., LTD., priority 2023, published 2026).

Legend:
Format in all cases: cell-based
Conditions in all cases: compounds at 50 nM and 500 nM
WEE1 = biological target: T1, WEE1 (Homo sapiens, UniProt P30291+Q96SW2); assay: Western blot degradation of WEE1 in hPBMCs (24 h)
T1 construct: The supernatant was aspirated as the extracted total cell protein; endogenous in cells; host or cells: human peripheral blood mononuclear cells (hPBMCs)
Procedure, shortened: (§1)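 Immunoblot densitometry quantifies target loss in hPBMCs after a 24 h compound exposure (50 nM, 500 nM). Percent remaining is normalised band intensity; DC50 is the concentration giving half the DMSO-control band grayscale.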

CK1α = biological target: T2, CK1α (Homo sapiens, UniProt P48729+Q96SW2); assay: Western blot degradation of CK1α in hPBMCs (24 h)
T2 construct: The supernatant was aspirated as the extracted total cell protein; endogenous in cells; host or cells: human peripheral blood mononuclear cells (hPBMCs)
Procedure, shortened: as §1

IKZF1 = biological target: T3, IKZF1 (Homo sapiens, UniProt Q13422+Q96SW2); assay: Western blot degradation of IKZF1 in hPBMCs (24 h)
T3 construct: The supernatant was aspirated as the extracted total cell protein; endogenous in cells; host or cells: human peripheral blood mononuclear cells (hPBMCs)
Procedure, shortened: as §1

IKZF2 = biological target: T4, IKZF2 (Homo sapiens, UniProt Q96SW2+Q9UKS7); assay: Western blot degradation of IKZF2 in hPBMCs (24 h)
T4 construct: The supernatant was aspirated as the extracted total cell protein; endogenous in cells; host or cells: human peripheral blood mononuclear cells (hPBMCs)
Procedure, shortened: as §1

GSPT1 = biological target: T5, GSPT1 (Homo sapiens, UniProt P15170+Q96SW2); assay: Western blot degradation of GSPT1 in hPBMCs (24 h)
T5 construct: The supernatant was aspirated as the extracted total cell protein; endogenous in cells; host or cells: human peripheral blood mononuclear cells (hPBMCs)
Procedure, shortened: as §1

IKZF3 = biological target: T6, IKZF3 (Homo sapiens, UniProt Q96SW2+Q9UKT9); assay: Western blot degradation of IKZF3 in hPBMCs (24 h)
T6 construct: The supernatant was aspirated as the extracted total cell protein; endogenous in cells; host or cells: human peripheral blood mononuclear cells (hPBMCs)
Procedure, shortened: as §1

T1 sequence (P30291 whole entry): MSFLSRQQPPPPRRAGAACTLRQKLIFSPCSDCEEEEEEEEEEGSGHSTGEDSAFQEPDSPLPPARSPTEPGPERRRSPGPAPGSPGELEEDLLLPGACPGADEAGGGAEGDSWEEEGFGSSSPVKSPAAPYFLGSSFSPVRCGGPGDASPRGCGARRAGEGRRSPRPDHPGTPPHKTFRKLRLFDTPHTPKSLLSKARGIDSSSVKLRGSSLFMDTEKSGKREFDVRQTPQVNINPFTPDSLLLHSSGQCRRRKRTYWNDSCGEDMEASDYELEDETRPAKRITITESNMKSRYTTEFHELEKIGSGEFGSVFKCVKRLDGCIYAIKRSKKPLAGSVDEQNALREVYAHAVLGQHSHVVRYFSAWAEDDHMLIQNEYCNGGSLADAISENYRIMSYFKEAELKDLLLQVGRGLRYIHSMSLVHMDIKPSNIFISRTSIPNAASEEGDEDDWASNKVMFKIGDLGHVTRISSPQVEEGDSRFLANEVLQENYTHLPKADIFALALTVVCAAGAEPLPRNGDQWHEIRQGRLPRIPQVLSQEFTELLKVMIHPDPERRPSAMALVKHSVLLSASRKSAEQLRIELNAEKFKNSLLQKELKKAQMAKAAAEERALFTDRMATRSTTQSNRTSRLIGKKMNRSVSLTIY
T1 sequence (Q96SW2 whole entry): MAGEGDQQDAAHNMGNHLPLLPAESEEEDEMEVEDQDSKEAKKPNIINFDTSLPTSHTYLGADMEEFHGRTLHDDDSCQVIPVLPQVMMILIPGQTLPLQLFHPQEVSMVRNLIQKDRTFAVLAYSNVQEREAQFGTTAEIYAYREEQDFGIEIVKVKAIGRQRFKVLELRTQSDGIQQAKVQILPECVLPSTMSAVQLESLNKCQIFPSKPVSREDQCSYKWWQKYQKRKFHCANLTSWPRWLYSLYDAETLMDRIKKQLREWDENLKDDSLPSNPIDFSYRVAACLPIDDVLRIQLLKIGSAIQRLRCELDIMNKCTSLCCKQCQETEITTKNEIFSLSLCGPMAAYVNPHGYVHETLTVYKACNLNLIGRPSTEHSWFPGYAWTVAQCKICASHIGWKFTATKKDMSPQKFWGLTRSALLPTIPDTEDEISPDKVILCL
T1 sequence (Q16531 whole entry partner): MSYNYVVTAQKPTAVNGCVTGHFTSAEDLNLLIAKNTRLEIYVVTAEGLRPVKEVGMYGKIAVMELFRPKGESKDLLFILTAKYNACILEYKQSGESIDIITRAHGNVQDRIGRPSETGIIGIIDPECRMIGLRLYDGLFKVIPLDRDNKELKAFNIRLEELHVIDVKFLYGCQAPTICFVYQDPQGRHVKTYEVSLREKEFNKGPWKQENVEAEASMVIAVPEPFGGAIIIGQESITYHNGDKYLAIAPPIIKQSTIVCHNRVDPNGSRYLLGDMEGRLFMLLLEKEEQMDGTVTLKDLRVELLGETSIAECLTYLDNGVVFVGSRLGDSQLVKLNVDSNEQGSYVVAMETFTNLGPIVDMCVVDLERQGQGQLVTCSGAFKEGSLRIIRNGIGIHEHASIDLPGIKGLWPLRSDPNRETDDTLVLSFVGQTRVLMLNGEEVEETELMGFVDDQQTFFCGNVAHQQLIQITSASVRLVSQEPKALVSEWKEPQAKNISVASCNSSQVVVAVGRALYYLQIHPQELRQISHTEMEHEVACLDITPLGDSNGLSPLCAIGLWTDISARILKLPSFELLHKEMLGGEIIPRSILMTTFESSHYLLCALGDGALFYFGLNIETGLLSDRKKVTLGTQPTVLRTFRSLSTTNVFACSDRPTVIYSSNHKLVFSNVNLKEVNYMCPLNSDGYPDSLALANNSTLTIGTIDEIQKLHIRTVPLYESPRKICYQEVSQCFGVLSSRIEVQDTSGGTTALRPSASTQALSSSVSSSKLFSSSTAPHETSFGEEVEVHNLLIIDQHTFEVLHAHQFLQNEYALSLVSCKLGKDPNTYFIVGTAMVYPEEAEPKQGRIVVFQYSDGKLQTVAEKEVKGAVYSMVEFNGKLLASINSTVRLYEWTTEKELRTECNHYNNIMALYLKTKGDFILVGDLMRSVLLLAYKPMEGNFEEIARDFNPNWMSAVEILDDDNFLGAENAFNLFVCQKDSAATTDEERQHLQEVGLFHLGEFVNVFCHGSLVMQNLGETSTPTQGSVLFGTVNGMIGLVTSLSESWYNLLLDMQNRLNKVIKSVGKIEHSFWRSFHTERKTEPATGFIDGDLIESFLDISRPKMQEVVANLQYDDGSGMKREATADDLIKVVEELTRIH
T3 sequence (Q13422 whole entry): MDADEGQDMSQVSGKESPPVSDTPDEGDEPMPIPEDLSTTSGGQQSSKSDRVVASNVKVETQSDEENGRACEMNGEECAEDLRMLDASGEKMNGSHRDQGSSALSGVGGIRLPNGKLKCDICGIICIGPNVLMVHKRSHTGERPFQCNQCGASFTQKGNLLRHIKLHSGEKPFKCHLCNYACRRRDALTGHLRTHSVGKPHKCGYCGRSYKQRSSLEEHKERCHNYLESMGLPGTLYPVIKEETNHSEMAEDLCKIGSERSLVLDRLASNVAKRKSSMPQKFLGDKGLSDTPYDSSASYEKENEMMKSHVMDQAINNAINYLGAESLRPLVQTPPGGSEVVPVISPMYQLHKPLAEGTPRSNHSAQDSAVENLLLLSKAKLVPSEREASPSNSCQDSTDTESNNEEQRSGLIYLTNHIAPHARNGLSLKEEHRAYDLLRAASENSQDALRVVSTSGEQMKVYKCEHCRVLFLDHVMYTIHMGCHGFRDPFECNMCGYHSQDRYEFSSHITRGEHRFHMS
T3 sequence (Q96SW2 whole entry): as the sequence (Q96SW2 whole entry) above
T3 sequence (Q16531 whole entry partner): as the sequence (Q16531 whole entry partner) above
T6 sequence (Q9UKT9 whole entry): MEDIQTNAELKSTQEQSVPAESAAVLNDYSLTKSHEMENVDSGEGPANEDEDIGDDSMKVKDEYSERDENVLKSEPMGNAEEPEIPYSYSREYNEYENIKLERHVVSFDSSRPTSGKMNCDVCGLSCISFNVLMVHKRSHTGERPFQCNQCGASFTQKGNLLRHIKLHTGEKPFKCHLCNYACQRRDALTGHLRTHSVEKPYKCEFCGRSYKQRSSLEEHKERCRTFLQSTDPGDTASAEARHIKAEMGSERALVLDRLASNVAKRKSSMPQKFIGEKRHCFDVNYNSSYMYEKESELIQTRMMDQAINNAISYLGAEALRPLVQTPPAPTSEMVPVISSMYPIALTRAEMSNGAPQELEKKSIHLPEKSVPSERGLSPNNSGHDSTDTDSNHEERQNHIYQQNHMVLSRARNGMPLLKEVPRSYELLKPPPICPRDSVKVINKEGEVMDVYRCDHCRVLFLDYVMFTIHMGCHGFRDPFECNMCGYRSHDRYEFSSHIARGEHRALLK
T6 sequence (Q96SW2 whole entry): as the sequence (Q96SW2 whole entry) above
T6 sequence (Q16531 whole entry partner): as the sequence (Q16531 whole entry partner) above
T4 sequence (Q9UKS7 whole entry): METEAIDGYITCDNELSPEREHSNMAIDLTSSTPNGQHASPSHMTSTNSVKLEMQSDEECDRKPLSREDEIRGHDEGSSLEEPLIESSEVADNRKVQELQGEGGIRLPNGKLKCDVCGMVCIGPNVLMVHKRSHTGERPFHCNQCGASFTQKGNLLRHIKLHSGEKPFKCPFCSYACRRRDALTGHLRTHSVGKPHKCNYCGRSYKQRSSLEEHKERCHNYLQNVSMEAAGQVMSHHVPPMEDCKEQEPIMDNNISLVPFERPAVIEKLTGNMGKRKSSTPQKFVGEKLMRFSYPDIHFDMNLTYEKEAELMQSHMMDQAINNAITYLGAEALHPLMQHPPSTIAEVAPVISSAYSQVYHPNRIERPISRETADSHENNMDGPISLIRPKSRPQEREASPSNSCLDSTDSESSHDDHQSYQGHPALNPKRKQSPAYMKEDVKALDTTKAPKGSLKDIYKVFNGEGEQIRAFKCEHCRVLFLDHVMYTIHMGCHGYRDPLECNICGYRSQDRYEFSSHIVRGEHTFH
T4 sequence (Q96SW2 whole entry): as the sequence (Q96SW2 whole entry) above
T4 sequence (Q16531 whole entry partner): as the sequence (Q16531 whole entry partner) above
T5 sequence (P15170 whole entry): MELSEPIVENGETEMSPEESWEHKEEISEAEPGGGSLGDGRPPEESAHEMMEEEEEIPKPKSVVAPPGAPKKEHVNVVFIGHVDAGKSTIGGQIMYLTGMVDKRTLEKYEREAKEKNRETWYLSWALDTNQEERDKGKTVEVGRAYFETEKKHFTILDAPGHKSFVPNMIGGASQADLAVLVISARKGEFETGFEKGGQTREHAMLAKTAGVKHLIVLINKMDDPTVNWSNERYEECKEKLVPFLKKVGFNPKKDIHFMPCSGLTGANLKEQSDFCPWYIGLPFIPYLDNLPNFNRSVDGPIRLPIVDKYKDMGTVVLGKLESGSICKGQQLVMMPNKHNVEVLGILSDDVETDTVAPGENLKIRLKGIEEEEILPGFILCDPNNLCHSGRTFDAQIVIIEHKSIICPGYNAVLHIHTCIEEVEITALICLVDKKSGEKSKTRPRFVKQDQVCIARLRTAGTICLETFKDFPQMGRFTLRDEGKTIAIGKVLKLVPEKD
T5 sequence (Q96SW2 whole entry): as the sequence (Q96SW2 whole entry) above
T5 sequence (Q16531 whole entry partner): as the sequence (Q16531 whole entry partner) above

Structure (SMILES)	WEE1 substrate protein remaining % (WEE1)	CK1α substrate protein remaining % (CK1α)	IKZF1 substrate protein remaining % (IKZF1)	IKZF2 substrate protein remaining % (IKZF2)	GSPT1 substrate protein remaining % (GSPT1)	IKZF3 substrate protein remaining % (IKZF3)
O=C1CCN(N2C(=O)c3ccc(CN4CCC(c5noc6ccccc56)CC4)cc3C2=O)C(=O)N1 [GT-07522, 5-((4-(benzo[d]isoxazol-3-yl)piperidin-1-yl)methyl)-2-(2,4-dioxotetrahydropyrimidin-1(2H)-yl)isoindoline-1,3-dione]	A (0% ≤ substrate protein remaining % ≤80%)	A (0% ≤ substrate protein remaining % ≤80%)	A (0% ≤ substrate protein remaining % ≤80%)	A (0% ≤ substrate protein remaining % ≤80%)	A (0% ≤ substrate protein remaining % ≤80%)	B (80%< substrate protein remaining % ≤100%)
O=C1CCN(N2C(=O)c3ccc(CN4CCC(c5ccon5)CC4)cc3C2=O)C(=O)N1 [GT-07523, 2-(2,4-dioxotetrahydropyrimidin-1(2H)-yl)-5-((4-(isoxazol-3-yl)piperidin-1-yl)methyl)isoindoline-1,3-dione]	A (0% ≤ substrate protein remaining % ≤80%)	A (0% ≤ substrate protein remaining % ≤80%)	A (0% ≤ substrate protein remaining % ≤80%)	A (0% ≤ substrate protein remaining % ≤80%)	A (0% ≤ substrate protein remaining % ≤80%)	B (80%< substrate protein remaining % ≤100%)
O=C1CCN(N2C(=O)c3ccc(CN4CCN(c5noc6cc(F)ccc56)CC4)cc3C2=O)C(=O)N1 [GT-07524, 2-(2,4-dioxotetrahydropyrimidin-1(2H)-yl)-5-((4-(6-fluorobenzo[d]isoxazol-3-yl)piperazin-1-yl)methyl)isoindoline-1,3-dione]	A (0% ≤ substrate protein remaining % ≤80%)	B (80%< substrate protein remaining % ≤100%)	A (0% ≤ substrate protein remaining % ≤80%)	A (0% ≤ substrate protein remaining % ≤80%)	A (0% ≤ substrate protein remaining % ≤80%)	B (80%< substrate protein remaining % ≤100%)
O=C1CCN(N2C(=O)c3ccc(CN4CCN(c5noc6ccncc56)CC4)cc3C2=O)C(=O)N1 [GT-07525, 2-(2,4-dioxotetrahydropyrimidin-1(2H)-yl)-5-((4-(isoxazolo[4,5-c]pyridin-3-yl)piperazin-1-yl)methyl)isoindoline-1,3-dione]	B (80%< substrate protein remaining % ≤100%)	A (0% ≤ substrate protein remaining % ≤80%)	B (80%< substrate protein remaining % ≤100%)	B (80%< substrate protein remaining % ≤100%)	A (0% ≤ substrate protein remaining % ≤80%)	B (80%< substrate protein remaining % ≤100%)
O=C1CCN(N2C(=O)c3ccc(CN4CCN(c5nsc6cc(F)ccc56)CC4)cc3C2=O)C(=O)N1 [GT-07526, 2-(2,4-dioxotetrahydropyrimidin-1(2H)-yl)-5-((4-(6-fluorobenzo[d]isothiazol-3-yl)piperazin-1-yl)methyl)isoindoline-1,3-dione]	B (80%< substrate protein remaining % ≤100%)	A (0% ≤ substrate protein remaining % ≤80%)	B (80%< substrate protein remaining % ≤100%)	B (80%< substrate protein remaining % ≤100%)	A (0% ≤ substrate protein remaining % ≤80%)	B (80%< substrate protein remaining % ≤100%)
O=C1CCN(N2C(=O)c3ccc(CN4CCN(c5n[nH]c6cc(F)ccc56)CC4)cc3C2=O)C(=O)N1 [GT-07527, 2-(2,4-dioxotetrahydropyrimidin-1(2H)-yl)-5-((4-(6-fluoro-1H-indazol-3-yl)piperazin-1-yl)methyl)isoindoline-1,3-dione]	B (80%< substrate protein remaining % ≤100%)	A (0% ≤ substrate protein remaining % ≤80%)	B (80%< substrate protein remaining % ≤100%)	B (80%< substrate protein remaining % ≤100%)	A (0% ≤ substrate protein remaining % ≤80%)	B (80%< substrate protein remaining % ≤100%)
O=C1CCN(N2C(=O)c3ccc(CN4CCN(c5c[nH]c6ncccc56)CC4)cc3C2=O)C(=O)N1 [GT-07528, 5-((4-(1H-pyrrolo[2,3-b]pyridin-3-yl)piperazin-1-yl)methyl)-2-(2,4-dioxotetrahydropyrimidin-1(2H)-yl)isoindoline-1,3-dione]	B (80%< substrate protein remaining % ≤100%)	A (0% ≤ substrate protein remaining % ≤80%)	B (80%< substrate protein remaining % ≤100%)	B (80%< substrate protein remaining % ≤100%)	A (0% ≤ substrate protein remaining % ≤80%)	B (80%< substrate protein remaining % ≤100%)
O=C1CCN(N2C(=O)c3ccc(CN4CCC(n5cnc6cc(F)ccc65)CC4)cc3C2=O)C(=O)N1 [GT-07529, 2-(2,4-dioxotetrahydropyrimidin-1(2H)-yl)-5-((4-(5-fluoro-1H-benzo[d]imidazol-1-yl)piperidin-1-yl)methyl)isoindoline-1,3-dione]	B (80%< substrate protein remaining % ≤100%)	A (0% ≤ substrate protein remaining % ≤80%)	B (80%< substrate protein remaining % ≤100%)	B (80%< substrate protein remaining % ≤100%)	A (0% ≤ substrate protein remaining % ≤80%)	B (80%< substrate protein remaining % ≤100%)
O=C1CCN(N2C(=O)c3ccc(CN4CCC(c5n[nH]c6cc(F)ccc56)CC4)cc3C2=O)C(=O)N1 [GT-07530, 2-(2,4-dioxotetrahydropyrimidin-1(2H)-yl)-5-((4-(6-fluoro-1H-indazol-3-yl)piperidin-1-yl)methyl)isoindoline-1,3-dione]	A (0% ≤ substrate protein remaining % ≤80%)	A (0% ≤ substrate protein remaining % ≤80%)	B (80%< substrate protein remaining % ≤100%)	B (80%< substrate protein remaining % ≤100%)	A (0% ≤ substrate protein remaining % ≤80%)	B (80%< substrate protein remaining % ≤100%)
O=C1CCN(N2Cc3cc(CN4CCN(c5n[nH]c6cc(F)ccc56)CC4)ccc3C2=O)C(=O)N1 [GT-07545, 1-(5-((4-(6-fluoro-1H-indazol-3-yl)piperazin-1-yl)methyl)-1-oxoisoindolin-2-yl)dihydropyrimidine-2,4(1H,3H)-dione]	A (0% ≤ substrate protein remaining % ≤80%)	A (0% ≤ substrate protein remaining % ≤80%)	A (0% ≤ substrate protein remaining % ≤80%)	B (80%< substrate protein remaining % ≤100%)	A (0% ≤ substrate protein remaining % ≤80%)	B (80%< substrate protein remaining % ≤100%)
